Legend:
windgrass = experiment: Test Example 4: herbicidal effect by soil treatment (Table 19, symbol L); format: in vivo, windgrass (Apera spica-venti); settings: amount of applied herbicide 320 g/ha
Outline: (§1)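 In this soil treatment, the formulated compound reached the seeds only through the soil: seeds were buried about 1.5 cm deep in sterilized diluvial soil, then the diluted emulsion was sprayed over the surface. After three weeks at 25° C. to 30° C. in a greenhouse, effects were graded on criteria from an earlier test.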

barnyard grass [1] = experiment: Test Example 3: herbicidal effect by foliage application, Wagner pot (Table 18, symbol H); format: in vivo, barnyard grass (Echinochloa crus-galli); settings: amount of applied herbicide 320 g/ha
Outline: (§2)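 Plants were sown in alluvial soil held under 0.1–0.5 cm standing water and grown 14 days in a greenhouse at 25–30 °C. An emulsifiable formulation, water-diluted to the set dose, was then sprayed onto the foliage, and effects were scored three weeks later using previously defined criteria.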

green foxtail [2] = experiment: Test Example 4: herbicidal effect by soil treatment (Table 19, symbol G); format: in vivo, green foxtail (Setaria viridis); settings: amount of applied herbicide 320 g/ha
Outline: as §1

southern crabgrass [3] = experiment: Test Example 5: herbicidal effect by foliage application, plastic box (Table 20, symbol F); format: in vivo, southern crabgrass (Digitaria ciliaris); settings: foliage application, 320 g/ha, three weeks after application
Outline: (§3)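 Plants were sown into sterilized diluvial soil under about 1.5 cm cover and kept in a greenhouse at 25° C. to 30° C. Fourteen days on, foliage received an even spray of the diluted emulsion. Herbicidal or crop effect was judged three weeks afterwards.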

persian speedwell = experiment: Test Example 5: herbicidal effect by foliage application, plastic box (Table 20, symbol R); format: in vivo, Persian speedwell (Veronica persica); settings: foliage application, 320 g/ha, three weeks after application
Outline: as §3

late watergrass = experiment: Test Example 1: herbicidal activity, application before weed generation under submerged conditions (Table 16, symbol A); format: in vivo, late watergrass (Echinochloa oryzicola); settings: amount of applied herbicide 320 g/ha
Outline: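 Alluvial soil was flooded to 4 cm depth, weed seeds were sown mixed and 2.5-leaf rice seedlings were transplanted. On sowing day, the compound's emulsion, diluted in water to a set dose, was applied to the water surface. Plants grew at 25–30 °C and were scored 0–5 after three weeks.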

chickweed = experiment: Test Example 4: herbicidal effect by soil treatment (Table 19, symbol P); format: in vivo, common chickweed (Stellaria media); settings: amount of applied herbicide 320 g/ha
Outline: as §1

green foxtail [4] = experiment: Test Example 5: herbicidal effect by foliage application, plastic box (Table 20, symbol G); format: in vivo, green foxtail (Setaria viridis); settings: foliage application, 320 g/ha, three weeks after application
Outline: as §3

blackgrass [5] = experiment: Test Example 4: herbicidal effect by soil treatment (Table 19, symbol J); format: in vivo, blackgrass (Alopecurus myosuroides); settings: amount of applied herbicide 320 g/ha
Outline: as §1

Chinese sprangletop = experiment: Test Example 3: herbicidal effect by foliage application, Wagner pot (Table 18, symbol D); format: in vivo, chinese sprangletop (Leptochloa chinensis); settings: amount of applied herbicide 320 g/ha
Outline: as §2

redroot pigweed = experiment: Test Example 4: herbicidal effect by soil treatment (Table 19, symbol N); format: in vivo, redroot pigweed (Amaranthus retroflexus); settings: amount of applied herbicide 320 g/ha
Outline: as §1

blackgrass [6] = experiment: Test Example 5: herbicidal effect by foliage application, plastic box (Table 20, symbol J); format: in vivo, blackgrass (Alopecurus myosuroides); settings: foliage application, 320 g/ha, three weeks after application
Outline: as §3

barnyard grass [7] = experiment: Test Example 4: herbicidal effect by soil treatment (Table 19, symbol H); format: in vivo, barnyard grass (Echinochloa crus-galli); settings: amount of applied herbicide 320 g/ha
Outline: as §1

oval-leafed pondweed = experiment: Test Example 2: herbicidal activity, application during weed generation under submerged conditions (Table 17, symbol C); format: in vivo, oval-leafed pondweed (Monochoria vaginalis); settings: AAH 320 g/ha; application during weed generation, submerged conditions
Outline: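 Effect on each weed is rated three weeks post-treatment, using the same scoring criteria as the preceding test. Plants grow from mixed-sown seed in flooded alluvial soil (4 cm water) at 25° C. to 30° C., and are treated at one to two leaves with diluted emulsion dropped onto the water.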

southern crabgrass [8] = experiment: Test Example 4: herbicidal effect by soil treatment (Table 19, symbol F); format: in vivo, southern crabgrass (Digitaria ciliaris); settings: amount of applied herbicide 320 g/ha
Outline: as §1

SMILES	L: windgrass, herbicidal effect grade (windgrass)	Herbicidal effect on H (barnyard grass), foliage application (barnyard grass [1])	G: green foxtail, herbicidal effect grade (green foxtail [2])	herbicidal effect on southern crabgrass (F) (southern crabgrass [3])	herbicidal effect on persian speedwell (R) (persian speedwell)	Herbicidal effect, A: late watergrass (late watergrass)	P: chickweed, herbicidal effect grade (chickweed)	herbicidal effect on green foxtail (G) (green foxtail [4])	J: blackgrass, herbicidal effect grade (blackgrass [5])	Herbicidal effect on D (Chinese sprangletop), foliage application (Chinese sprangletop)	N: redroot pigweed, herbicidal effect grade (redroot pigweed)	herbicidal effect on blackgrass (J) (blackgrass [6])	H: barnyard grass, herbicidal effect grade (barnyard grass [7])	herbicidal effect rating, C: oval-leafed pondweed (oval-leafed pondweed)	F: southern crabgrass, herbicidal effect grade (southern crabgrass [8])
COc1ccccc1-c1sc2c(Br)c(OC)ccc2c1-c1c(O)c(C)nn(C)c1=O [7-002]	0 (Herbicidal rate of 5% or less (almost no effect))	5 (Herbicidal rate of 90% or more (almost completely withered))	0 (Herbicidal rate of 5% or less (almost no effect))	0 (Herbicidal rate of 5% or less (almost no effect))	5 (Herbicidal rate of 90% or more (almost completely withered))	3 (Herbicidal rate of 40% or more and less than 70%)	3 (Herbicidal rate of 40% or more and less than 70%)	5 (Herbicidal rate of 90% or more (almost completely withered))	0 (Herbicidal rate of 5% or less (almost no effect))	2 (Herbicidal rate of 20% or more and less than 40%)	5 (Herbicidal rate of 90% or more (almost completely withered))	0 (Herbicidal rate of 5% or less (almost no effect))	2 (Herbicidal rate of 20% or more and less than 40%)	2 (Herbicidal rate of 20% or more and less than 40%)	1 (Herbicidal rate of 5% or more and less than 20%)
CCCOc1ccc(-c2oc3ccccc3c2-c2c(O)c(C)nn(C)c2=O)cc1 [8-003]	0 (Herbicidal rate of 5% or less (almost no effect))	5 (Herbicidal rate of 90% or more (almost completely withered))	2 (Herbicidal rate of 20% or more and less than 40%)	2 (Herbicidal rate of 20% or more and less than 40%)	5 (Herbicidal rate of 90% or more (almost completely withered))	5 (Herbicidal rate of 90% or more (almost completely withered))	1 (Herbicidal rate of 5% or more and less than 20%)	5 (Herbicidal rate of 90% or more (almost completely withered))	1 (Herbicidal rate of 5% or more and less than 20%)	3 (Herbicidal rate of 40% or more and less than 70%)	5 (Herbicidal rate of 90% or more (almost completely withered))	4 (Herbicidal rate of 70% or more and less than 90%)	5 (Herbicidal rate of 90% or more (almost completely withered))	3 (Herbicidal rate of 40% or more and less than 70%)	3 (Herbicidal rate of 40% or more and less than 70%)
C=CCOc1ccc(-c2oc3ccccc3c2-c2c(O)c(C)nn(C)c2=O)cc1 [8-004]	0 (Herbicidal rate of 5% or less (almost no effect))	5 (Herbicidal rate of 90% or more (almost completely withered))	3 (Herbicidal rate of 40% or more and less than 70%)	4 (Herbicidal rate of 70% or more and less than 90%)	5 (Herbicidal rate of 90% or more (almost completely withered))	5 (Herbicidal rate of 90% or more (almost completely withered))	1 (Herbicidal rate of 5% or more and less than 20%)	3 (Herbicidal rate of 40% or more and less than 70%)	0 (Herbicidal rate of 5% or less (almost no effect))	3 (Herbicidal rate of 40% or more and less than 70%)	5 (Herbicidal rate of 90% or more (almost completely withered))	3 (Herbicidal rate of 40% or more and less than 70%)	4 (Herbicidal rate of 70% or more and less than 90%)	3 (Herbicidal rate of 40% or more and less than 70%)	4 (Herbicidal rate of 70% or more and less than 90%)
Cc1nn(C)c(=O)c(-c2c(-c3ccc(OCC(C)C)cc3)oc3ccc(F)cc23)c1O [9-027]	4 (Herbicidal rate of 70% or more and less than 90%)	5 (Herbicidal rate of 90% or more (almost completely withered))	5 (Herbicidal rate of 90% or more (almost completely withered))	5 (Herbicidal rate of 90% or more (almost completely withered))	5 (Herbicidal rate of 90% or more (almost completely withered))	5 (Herbicidal rate of 90% or more (almost completely withered))	1 (Herbicidal rate of 5% or more and less than 20%)	5 (Herbicidal rate of 90% or more (almost completely withered))	4 (Herbicidal rate of 70% or more and less than 90%)	2 (Herbicidal rate of 20% or more and less than 40%)	5 (Herbicidal rate of 90% or more (almost completely withered))	5 (Herbicidal rate of 90% or more (almost completely withered))	4 (Herbicidal rate of 70% or more and less than 90%)	4 (Herbicidal rate of 70% or more and less than 90%)	5 (Herbicidal rate of 90% or more (almost completely withered))
COCCOc1ccc(-c2oc3ccccc3c2-c2c(O)c(C)nn(C)c2=O)cc1 [Compound No. 8-007, 5-hydroxy-4-(2-(4-(2-methoxyethoxy)phenyl)benzofuran-3-yl)-2,6-dimethylpyridazin-3-(2H)-one]	0 (Herbicidal rate of 5% or less (almost no effect))	5 (Herbicidal rate of 90% or more (almost completely withered))	5 (Herbicidal rate of 90% or more (almost completely withered))	5 (Herbicidal rate of 90% or more (almost completely withered))	5 (Herbicidal rate of 90% or more (almost completely withered))	5 (Herbicidal rate of 90% or more (almost completely withered))	0 (Herbicidal rate of 5% or less (almost no effect))	5 (Herbicidal rate of 90% or more (almost completely withered))	3 (Herbicidal rate of 40% or more and less than 70%)	3 (Herbicidal rate of 40% or more and less than 70%)	5 (Herbicidal rate of 90% or more (almost completely withered))	5 (Herbicidal rate of 90% or more (almost completely withered))	5 (Herbicidal rate of 90% or more (almost completely withered))	3 (Herbicidal rate of 40% or more and less than 70%)	5 (Herbicidal rate of 90% or more (almost completely withered))

Source: patent US20230085307A1, “PYRIDAZINONE COMPOUND AND HERBICIDE” (NISSAN CHEMICAL CORPORATION, priority 2019, published 2023)
